Values quoted from earlier work as cited in patent publication US20180177198A1, “PEDICULICIDE FORMULATION BASED ON EUCALYPTUS GLOBULUS ESSENTIAL OIL” (UNIVERSIDAD DE CONCEPCION, priority 2015, published 2018).

Columns and labels:
[1] = test system: lice
[2] = test system: Pediculus humanus capitis resistant to permethrin
[3] = test system: pediculosis; settings: in vivo
[4] = not given; remark: listed apart in the source
[5] = test system: P. capitis

CC12CCC(CC1)C(C)(C)O2 [1.8-cineol]
pediculicidal effectiveness compared with phenothrin or pyrethrum [1]: as effective as

I-phellandrene
pediculicidal effectiveness compared with phenothrin or pyrethrum [1]: as effective as

C=C1C(O)CC2CC1C2(C)C (centres unmarked) [(E)-pinocarveol]
pediculicidal effectiveness compared with phenothrin or pyrethrum [1]: as effective as

α-dodelactone
repellent activity [2]: significant repellent activity

CC1=CCC2CC1C2(C)C (stereo not drawn) [(−) α-pinene]
pediculicidal effectiveness compared with phenothrin or pyrethrum [1]: as effective as

CC1=CC[C@@H](C(C)(C)O)CC1 [1-α-terpineol]
pediculicidal effectiveness compared with phenothrin or pyrethrum [1]: as effective as

CC1=CC=C(C(C)C)CC1 [α-terpinene]
pediculicidal effectiveness compared with phenothrin or pyrethrum [1]: as effective as

c1ccc([C@H]2CN3CCSC3=N2)cc1 [Levamisol]
effectiveness in treatment of pediculosis [3]: 19%

Cl[C@H]1[C@H](Cl)[C@@H](Cl)[C@@H](Cl)[C@H](Cl)[C@H]1Cl [Lindane, gamma benzene hexachloride]
average life in the blood stream (in vivo): 24 h | absorbed by passage into the blood stream (topical use): Approximately 10% | toxicity range, can be lethal ([4]; adults): 28 g | dose causing respiratory depression ([4]; children below the age of 4, at 1%): 5 mL | ovicidal activity [5]: lacks ovicidal activity

c1ccc2[nH]c(-c3cscn3)nc2c1 [Thiabendazole]
average life (elimination after percutaneous absorption) (in vivo): 70 min
